In patent publication US6080791A, “Method of treating a viral condition by inhibiting membrane fusion” (priority 1992, dated 2000):
Where two headings read alike, the source gives them in different places.

Assays:
in vitro = settings: dog, mdck
Experimental: The ELISA-based assay described below (EIA antiviral assay) was used to measure antiviral activity. Cell viability was measured in parallel to distinguish inhibition of viral replication from toxicity.
Infections of MDCK2 cells with virus, compounds, and DMSO were set up identically as for the EIA assay. Following the 15 hour incubation, test compounds were washed away with PBS. 50 μl of MDCK2 growth media and 25 μl 2 mg/ml 3-(4,5-dimethylthiazol-2-yl)-2,5-diphenyl tetrazolium bromide (Sigma) in PBS were added to each well. Plates were returned to 37° C., 5% CO2 for 4 hrs. Crystals were broken up by vigorous mixing following addition of 80 μl isopropanol/0.04 N HCl. After incubation for 30 mins at RT, OD570 was read on an ELISA reader. % Inhibition is the % reduction of OD570 in the wells infected with compound compared to otherwise identical samples with compound omitted.

[1] = tested on: influenza-mediated syncytia formation, CV-1 cells
HIV-1 fusion protein = HIV-1 fusion protein (Human immunodeficiency virus type 1 group M subtype B, UniProt P04578); test: Inhibition of fusion mediated by the HIV-1 fusion protein; format: cell-based
[2] = tested on: hemagglutinin-mediated hemolysis of human red blood cells; test: Hemolysis (HEM) assay; format: cell-based, C22 influenza virus; human red blood cells; settings: for inhibition at 100 µM: log conc -4 (M)
hemoglobin = test: Hb control (quenching of OD570 of hemoglobin); design: species or system human
low pH BHA = test: SPA POST control (nonspecific quenching); design: species or system C22 / X31 influenza virus (H3N2)
Experimental: The compounds being screened by SPA are present during scintillation counting. Some of the chemicals, particularly those that are highly colored, quench the detection of radioactivity. A control ("POST") distinguishes whether apparent inhibition arises from inhibition of the conformational change or from nonspecific effects. The test compound is added to a sample of BHA that had previously been acidified and reneutralized. The mixture is then precipitated as usual. Since the BHA treated in this manner is known to be in the low pH conformation, a reduction in measurable cpm compared to controls with ligand omitted proves the compound interferes with the detection system.
^3 H-Leu BHA was diluted to 10,000 cpm (counts per minute) per 200 μl in MSSH buffer (10 mM HEPES, 10 mM MES, 10 mM succinate, 0.10 M NaCl, pH 7.0) containing 0.1% NP40. Protein was incubated with the specified concentration of trial compound for 25 minutes at RT. The same volume of solvent used to dissolve the compound was added to control samples and the final concentration of DMSO in all solutions was 0.67% v/v. A predetermined amount of 1N HAc was added to bring the reactions to the appropriate pH (usually pH 5.0). Following a 5 minute (unless specified otherwise) incubation at RT, reactions were reneutralized with 1N NaOH. For POST controls, compounds were added to the appropriate concentration after reneutralization. 200 μL aliquots of the protein solution were added to scintillation vials containing 100 μl protein A-SPA beads (Amersham), 5% fetal bovine serum (FBS), and antibody. Vials were incubated overnight at RT with constant shaking. Each reaction used 10 μl of fusion peptide antiserum diluted 1:10 with 50% glycerol. Cpm were detected in a Beckman LS3801 scintillation counter without addition of liquid scintillant.
Apparent inhibition due to nonspecific effects was quantitated from the POST controls with the equation:
observed cpm=true cpm*quench factor

[3] = biological target: T1, hemagglutinin (Influenza A virus (A/X-31(H3N2)), UniProt P03438); test: Binding site by crystallography (preliminary)
T1 construct: HA1 and HA2 cleaved from precursor HA0

C22 virus in MDCK2 cells = test: microbe, parasite or virus in culture; settings: unidentified influenza virus; for inhibition at 1 µM / inhibition at 10 µM / inhibition at 100 µM: MDCK2, 15 h, read-out: infectivity % inhibition
[4] = tested on: influenza-mediated syncytia formation, CV-1 cells; test: cells; settings: unidentified influenza virus, CV-1, read-out: IC50 syncytia
[5] = unidentified influenza virus, Erythrocyte, 0.25 h, Table 6, 10^-3 = 1 mM, low pH 15 minutes, read-out: IC50 hemolysis
[6] = unidentified influenza virus, Erythrocyte, Table 7, read-out: HEM, negative log of IC50 (converted)
[7] = unidentified influenza virus, Erythrocyte, read-out: hemolysis % ↓ OD
[8] = MDCK2, read-out: IC50 infectivity
[9] = MDCK2, read-out: INF, negative log of IC50 (converted)

| SMILES | cytotoxicity at 15 h, 1 µM (in vitro) | cytotoxicity at 15 h, 10 µM (in vitro) | cytotoxicity at 15 h, 100 µM (in vitro) | IC50 [2, 5] | IC50 [2, 6] | inhibition at 100 µM [2, 7] | Hb control % ↓ OD (hemoglobin; log conc -4 (M)) | inhibition at 1 µM (C22 virus in MDCK2 cells) | inhibition at 10 µM (C22 virus in MDCK2 cells) | inhibition at 100 µM (C22 virus in MDCK2 cells) | IC50 (C22 virus in MDCK2 cells; [8]) | IC50 (C22 virus in MDCK2 cells; [9]) | other results |
| --- | --- | --- | --- | --- | --- | --- | --- | --- | --- | --- | --- | --- | --- |
| O=C1C=CC(=O)c2ccccc21 [Compound 90, 1,4-naphthoquinone] | -6.7 ± 7.3% | 33 ± 9.9% | 96.8 ± 3.8% | 1 mM | 1 mM | 33.1% | 57.1% | -3.3 ± 2.4% | 81.7 ± 2.2% | 96.9% | 10 µM | 10 µM | syncytia, Table 6 ([1]; Table 6): morph; IC50 (HIV-1 fusion protein): 2000 nM; inhibition at 1000 µM ([2]; unidentified influenza virus, Erythrocyte, log conc -3 (M), read-out: hemolysis % ↓ OD): 90.3%; inhibition at 10 µM ([2]; unidentified influenza virus, Erythrocyte, log conc -5 (M), read-out: hemolysis % ↓ OD): 4.7%; Hb control % ↓ OD (hemoglobin; log conc -3 (M)): 68.1%; Hb control % ↓ OD (hemoglobin; log conc -5 (M)): 24.9%; % inhibition, POST control (low pH BHA; log conc -3 (M)): 68.2%; % inhibition, POST control (low pH BHA; log conc -4 (M)): 30.8%; % inhibition, POST control (low pH BHA; log conc -5 (M)): 4.6%; binding site (preliminary crystallographic results) [3]: binding to hemagglutinin at a site in the hinge region of the trimer |
| O=C1C=C(O)C(=O)c2ccccc21 [Compound 120, 2-hydroxy-1,4-naphthoquinone] | 0.5 ± 0.3% | -6 ± 5% | -7 ± 4.4% | > 0.1 mM | > 0.1 mM | 6.2% | 4.4% | 7.1 ± 6.7% | 4.7 ± 0.9% | -2.3 ± 3.1% | > 1000 µM | > 1000 µM | inhibition of syncytia formation ([1]; 10 μM): Significant inhibition was not observed; inhibition of hemolytic activity [2]: did not; IC50 [4]: > 10 µM |
